Tests used:
male rats = assay: Erection episodes and Penile Erection Index (PEI) in male rats within 2 hours (according to EP 1057829 A1); format: in vivo; settings: 10 rats
Procedure: (§1) The purpose of the study was to compare the biological activity of the compositions of the present invention with that of sildenafil. In particular, the erection episodes and penile erection indexes of the compounds and compositions in the treatment of male rats and rabbits were determined.
(§2) Details on the determination of PEI values can be found in e.g. H.H. Ang and M.K. Sim, Effects of Eurycoma longifilia Jack on Penile Erection Indes and Homosexual Mounting in Rats, Pharmaceutical Sciences, 3 (1997), 117-19; and A. Benassi-Benelli, F. Ferrari and B. Pellegrini Quaratotti, Penile erection Induced by Apomorphine and N-n-propyl-norapomorphine in Rats, Arch. Int. Pharmacodyn 242 (1979), 241-247. The episode is a description for rat sucking their penus.
(§3) Rabbit experiments where performed according to E. Bischof and K. Schneider, "International Journal of Impotence Research", 13 (2001) 230 - 235, and rat experiments where performed according to EP 1057829 A1.
Further, the effect on penile length of rats was studied and the following results are given in table 2 for a compound disclosed in the invention and in table 3 for sildenafil. The penile length is indicative of the efficacy of the administered medicament.

rabbits = assay: Penile erection index for rabbits in dependency on time (according to Bischof and Schneider); format: in vivo; set-up: penile erection index: scale not given here
Procedure: as §1, §2, §3
Studying the penile erection index for rabbits in dependency on time yields the results given in table 1 for sildenafil and the compound (III).

CCCc1nn(C)c2c(=O)[nH]c(-c3cc(S(=O)(=O)N4CCN(C)CC4)ccc3OCC)nc12 [Sildenafil, sildenafil]
No. of episodes (male rats; dose 0.0781 mg/kg): 3 | PEI (male rats; dose 0.0781 mg/kg): 90 | No. of episodes (male rats; dose 0.1562 mg/kg): 5 | PEI (male rats; dose 0.1562 mg/kg): 150 | No. of episodes (male rats; dose 0.3125 mg/kg): 7 | PEI (male rats; dose 0.3125 mg/kg): 350 | No. of episodes (male rats; dose 0.6250 mg/kg): 14 | PEI (male rats; dose 0.6250 mg/kg): 980 | efficacy (penile erection index for rabbits), comparison in words (rabbits; comparison of sildenafil, compound III and compositions): greater efficacy than compounds III | penile erection index (rabbits; time 0 min): 0 | penile erection index (rabbits; time 5 min): 18.318 | penile erection index (rabbits; time 10 min): 16.694 | penile erection index (rabbits; time 15 min): 15.22 | penile erection index (rabbits; time 20 min): 13.108 | penile erection index (rabbits; time 30 min): 11.218 | penile erection index (rabbits; time 40 min): 7.364 | penile erection index (rabbits; time 50 min): 2.94

Reference: patent publication EP1460077B1, “Novel pyrazolopyrimidones and their use as PDE inhibitors” (The Jordanian Pharmaceutical Manufacturing Co. Ltd., priority 2003, dated 2004)
